In the NIST ThermoML archive (doi:10.1016/j.jct.2013.12.010):

Experiment: cn = amount concentration of the nth substance listed, in mol/dm3
Details: 298.15 K, 101 kPa, Liquid, Taylor dispersion method

| Structure (SMILES) | binary diffusion coefficient (c1 = 0.005) [m2/s] | binary diffusion coefficient (c1 = 0.1) [m2/s] |
| --- | --- | --- |
| N[C@@H](Cc1ccc(O)c(O)c1)C(=O)O [L-3,4-dihydroxyphenylalanine] + O | 6.2e-10 | – |
| Cl [hydrogen chloride] + O | 2.99e-09 | 2.9e-09 |
